This is an account of results in patent EP1203585A1, “ANTI-ISCHEMIC AGENT” (Zakrytoe Aktsionernoe Obschestvo " Asgl-Issledovatelskie …, priority 1999, dated 2001).

The term LD50 denotes the dose expected to kill half of the subjects tested. Higher therefore signals a less toxic substance.

Data set [1] deals with rats with experimental myocardial infarction. Briefly: experimental myocardial infarction after occlusion of the descending branch of the left coronary artery (LAD), morphometry of ischemia and injury zones. Format: in vivo. The settings on record: for Area of the injury zone: ischemia zone plus necrosis zone; for Area of the injury zone / Area of the necrosis zone / Ratio: necrosis zone /myocard / Ratio: necrosis/ ischemia / Area of the myocardial zone / Area of the ischemia zone / Ratio: ischemia zone/ myocard: third day, PhP 50 mg/kg intraperitoneally 30 minutes before LAD occlusion; for Area of the injury zone / Area of the necrosis zone / Ratio: necrosis zone /myocard / Ratio: necrosis/ ischemia / Area of the ischemia zone / Ratio: ischemia zone/ myocard: Obzidan 0.5 mg/kg; for Area of the injury zone / Area of the ischemia zone / Ratio: ischemia zone/ myocard: * p<0.05 vs physiological solution; for Area of the myocardial zone: Obzidan 0.5 mg/kg 30 minutes before. The method, then:
The study on 4-phenyl-2-pyrrolidinone-1-acetic acid amide anti-ischemic activity has been carried out in model of experimental myocardial infarction caused by the experimental myocardial infarction after the descending branch of the left coronary artery (LAD) occlusion in rats. 4-phenyl-2-pyrrolidinone-1-acetic acid amide was administered intraperitoneally in dose 50 mg/kg 30 minutes before the LAD-occlusion. Anti-ischemic activity of the substance was assessed on the third day after its administration by estimation of the area of necrosis, the area of ischemia and the total myocardial necrosis zone (area of necrosis plus area of ischemia). Ischemia zone and myocardial injury zones were assessed by morphometry methods. Results obtained in the experimental animals' groups exposed to the substance were compared with results obtained in animals, exposed to Obzidan and physiological solutionin (PhS) in dose 0.5 mg/kg, administered 30 minutes before the LAD occlusion.

The subject of data set [2] is rats. Briefly: toxicity study, blood and biochemical parameters at 50 and 100 mg/kg. Format: in vivo.
A short description of a further data set: acute toxicity (LD50). As to conditions: rat, in vivo. Also noted: species or system rats. As for the experimental part: Acute toxicity (LD50) has been studied in rats, the substance being administered intraperitoneally and perorally. […] LD50 of the substance administered perorally to rats (males and females) - 2464,8 mg/kg, of the pharmaceutical form - 3185,8 mg/kg.

A further data set relates to rabbits. As to the kind of experiment: toxicity study, blood and biochemical parameters at 50 and 100 mg/kg. Format: in vivo.
The test system of data set [3] is rats. As to the kind of experiment: hemodynamics parameters estimated by direct method. Type of data set: in vivo. The method, then:
In the other study parameters of hemodynamics in rats exposed to PhP have been estimated (minute cardiac supply, cardiac index, cardiac output, heart rate). Hemodynamics parameters have been estimated by direct method on the fourth day after PhP administration in dose 50 mg/kg.

Data set [4] deals with rats. Briefly: chronic toxicity. Format: in vivo. As to conditions: 160 rats, perorally in doses 50, 250 and 500 mg/kg.
For the next data set, the system named is dogs. As to the kind of experiment: chronic toxicity. The settings on record: 28 dogs, perorally in doses 50, 250 and 500 mg/kg. Type of data set: in vivo.
Setting [5] is: PhP 50 mg/kg intraperitoneally, compared with physiological solution.
The mark [6] stands for this setting: 4th day after PhP administration, dose 50 mg/kg.

For `CC(C)NCC(O)COc1cccc2ccccc12` (stereo not drawn) [Obzidan, reference compound], in data set [1], the “Area of the injury zone” value is on record as 203,68 MM^2, the “Area of the necrosis zone” value is 28,48 mm^2, the “Ratio: necrosis zone /myocard” value is given as 0,059± and the “Ratio: necrosis/ ischemia” value was 0,163±. Also, in data set [1], the “Area of the myocardial zone” value is 481,13 mm^2, the “Area of the ischemia zone” value is on record as 175,21 mm^2 and the “Ratio: ischemia zone/ myocard” value is listed as 0,365±.
Turning to `NC(=O)CN1CC(c2ccccc2)CC1=O` (stereo not drawn) [PhP, 4-phenyl-2-pyrrolidinone-1-acetic acid amide], in the data set with rats [2], the “parameters of the peripheral blood, composition of electrolytes and other biochemical parameters” value is “does not influence”. In data set [1] (PhP 50 mg/kg compared with Obzidan 0.5 mg/kg), the Anti-ischemic effect result is listed as “exceeded the one of Obzidan”. In data set [1] (setting [5]), the “area of ischemia zone (result in words)” value is “statistically significantly reduced” and the “area of the total injury zone (ischemia zone plus necrosis zone) (result in words)” value was “statistically significantly reduced”. The “area of myocardial necrosis (result in words)” value in data set [1] (PhP 50 mg/kg intraperitoneally, not statistically significant) is “nearly twice reduced”. Besides, in data set [1], the “Area of the injury zone” value was 182,53 MM^2, the “Area of the necrosis zone” value is on record as 19,21 mm^2, the “Ratio: necrosis zone /myocard” value was 0,039± and the “Ratio: necrosis/ ischemia” value was 0,113±. For the same compound, in data set [1], the “Area of the myocardial zone” value is reported as 492,55 mm^2, the “Area of the ischemia zone” value is 163,33 mm^2 and the “Ratio: ischemia zone/ myocard” value is recorded as 0,332±. For the same compound, the LD50 in “acute toxicity (LD50)” (ip, rats, females, administered intraperitoneally) came to 522 mg/kg. The compound also yielded an LD50 in the data set “acute toxicity (LD50)” (ip, rats, males, administered intraperitoneally) of 538 mg/kg. For the same compound, in “acute toxicity (LD50)” (po, rats (males and females), administered perorally), the LD50 was determined as 2460 mg/kg. Further, the “parameters of the peripheral blood, composition of electrolytes and other biochemical parameters” value with rabbits is listed as “does not influence”. For the same compound, in the data set on rats [3] (setting [6]), the Cardiac index is reported as 133.8 ±9.8 % in comparison with source data before PhP administration, the Cardiac output is 161.8±12.7 % in comparison with source data before PhP administration, the Heart rate is listed as 115.4±3.1 % in comparison with source data before PhP administration and the Minute cardiac supply is recorded as 110.8±3.2 % in comparison with source data before PhP administration. The inotrop effect entry in the data set on rats [3] (PhP 50 mg/kg) is “not followed by any negative inotrop effect”. In addition, in the data set on rats [4], the “changes of peripheral blood and heart, kidney and liver functions” value is “absence of significant changes”. Also, the “changes of peripheral blood and heart, kidney and liver functions” value in the data set with dogs is given as “absence of significant changes”.
